Laboratory results reported in US8507219B2, “Method of treating inflammation with statins” (MUSC Foundation for Research Development, priority 1997, dated 2013).

Tests used:
[1] = tested on: ceramide production in rat primary astrocytes; experiment: Degradation of sphingomyelin to ceramide (DAG kinase assay, HPTLC) in rat primary astrocytes; assay type: cell-based
Procedure: Lipid extraction Approximately 1.0×10^6 cells were exposed to different cytokines in the presence or absence of antioxidants for different periods and lipids were extracted according to the methods described by Welsh (1996).
Quantification of sphingomyelin by HPTLC and densitometry Sphingomyelin was separated from total lipid extracts by HPTLC (LPK-plates from Whatman Labsales, USA) as described (Ganser et al., 1988) for phospholipids with the modification, that the plate was overrun for 30 min during its development and was dried overnight in vacuum desicator. Sphingomyelin was quantitated by densitometric scanning using Imaging Densitometer (Model GS-670; Bio-Rad, USA) and software provided with the instrument by the manufacturer.
Quantification of ceramide levels by diacylglycerol kinase assay Ceramide content was quantified essentially according to Priess et al. using diacylglycerol (DAG) kinase and [γ-^32P]ATP (Priess et al., 1986). Briefly, dried lipids were solubilized in 20 μl of an octyl β-D-glucoside/cardiolipin solution (7.5% octyl β-D-glucoside, 5 mM cardiolipin in 1 mM DTPA) by sonication in a sonicator bath. […] The labeled ceramide 1-phosphate was resolved with a solvent system consisting of methyl acetate: n-propanol:chloroform:methanol:0.25% KCl in water:acetic-acid (100:100:100:40:36:2). A standard sample of ceramide was phosphorylated under identical conditions and developed in parallel. […] Quantification of ceramide 1-phosphate was carried out by autoradiography and densitometric scanning using Imaging Densitometer (Model GS-670; Bio-Rad, USA). Values are expressed either as arbitrary units (absorbance) or as percent change.
Lipid Extraction Approximately 1.0×10^6 cells were exposed to different cytokines in the presence or absence of antioxidants for different periods, and lipids were extracted according to the methods described by Welsh (1996).
Quantification of Sphingomyelin by High Performance TLC and Densitometry Sphingomyelin was separated from total lipid extracts by high performance TLC (LHPK plates from Whatman) as described by Ganser et al. (1988) for phospholipids with the following modification: the plate was overrun for 30 min during its development and was dried overnight in vacuum desiccator. Sphingomyelin was quantitated by densitometric scanning using Imaging Densitometer (model GS-670; Bio-Rad), and software was provided with the instrument by the manufacturer.
Quantification of Ceramide Levels by Diacylglycerol Kinase Assay Ceramide content was quantified essentially according to Priess et al. (1986) using diacylglycerol (DAG) kinase and [γ-^32P]ATP. Briefly, dried lipids were solubilized in 20 μl of an octyl β-D-glucoside/cardiolipin solution (7.5% octyl β-D-glucoside, 5 mM cardiolipin in 1 mM DTPA) by sonication in a sonicator bath. […] The labeled ceramide-1-phosphate was resolved with a solvent system consisting of methyl acetate:n-propyl alcohol:chloroform:methanol, 0.25% KCl in water:acetic acid (100:100:100:40:36:2). A standard sample of ceramide was phosphorylated under identical conditions and developed in parallel. […] Quantification of ceramide-1-phosphate was carried out by autoradiography and densitometric scanning using Imaging Densitometer (model GS-670; Bio-Rad). Values are expressed either as arbitrary units (absorbance) or as percent change.

[2] = tested on: rat primary oligodendrocytes; experiment: Apoptosis (DNA fragmentation, laddering) in rat primary oligodendrocytes; assay type: cell-based; conditions: 10 mM NAC 1 h; diamide 0.5 mM, TNF-α 50 ng/ml or C2-ceramide; 12 h
Procedure: Detection of DNA fragmentation Cells (1×10^6) were pelleted in an eppendorf tube by centrifugation at 1,000 rpm for 5 min, washed with PBS (pH 7.4), resuspended gently in 50 μl of a lysis buffer [200 mM NaCl, 10 mM Tris-HCl (pH 8.0), 40 mM EDTA (pH 8.0), 0.5% SDS, 400 ng RNase A/μl] and incubated at 37° C. for 1 h. The lysate received 200 μl of the digestion buffer [200 mM NaCl, 10 mM Tris-HCl (pH 8.0), 0.5% SDS, 125 ng proteinase K/μl]. The contents were mixed by inversion several times and then incubated at 50° C. for 2 h. An equal volume of a mixture phenol (pH 8.0), chloroform and isoamyl alcohol (25:24:1, v/v) was added, gently mixed for 10 min, and stored at room temperature for 2 min. […] The gel was stained with ethidium bromide and DNA-intercalated ethidium fluorescence was photographed on Polaroid film 665 (P/N) using an orange filter. […]
Detection of DNA Fragmentation Cells (1×10^6) were pelleted in an Eppendorf tube by centrifugation at 1000 rpm for 5 min, washed with phosphate-buffered saline, pH 7.4, resuspended gently in 50 μl of a lysis buffer (200 mM NaCl, 10 mM Tris-HCl, pH 8.0, 40 mM EDTA, pH 8.0, 0.5% SDS, 400 ng of RNase A/μl), and incubated at 37° C. for 1 h. […] The gel was stained with ethidium bromide, and DNA-intercalated ethidium fluorescence was photographed on Polaroid film 665 (P/N) using an orange filter. […]

[3] = tested on: intracellular GSH in rat primary astrocytes; experiment: Intracellular GSH / GSSG in rat primary astrocytes; assay type: cell-based; conditions: 10 mM NAC 1 h; TNF-α or IL-1β 50 ng/ml; diamide 0.5 mM
Procedure: Measurement of reduced glutathione (GSH) concentration in rat primary astrocytes Concentration of intracellular GSH was measured using a colorimetric assay kit for GSH from RandD, USA. Briefly, 2×10^6 cells were homogenized in 500 μl of ice-cold 5% metaphosphoric acid and centrifuged at 3000 g for 10 min. Supernatants were used to assay GSH using 4-chloro-1-methyl-7-trifluoromethyl-quinolinium methylsulfate and 30% NaOH at 400 nm.
Measurement of GSH (Reduced Glutathione) and GSSG Oxidized Glutathione Concentration of intracellular reduced GSH was measured using a calorimetric assay kit for GSH from R & D Systems. Briefly, 2×10^6 cells were homogenized in 500 μl of ice-cold 5% metaphosphoric acid and centrifuged at 3000×g for 10 min. Supernatants were used to assay GSH using 4-chloro-1-methyl-7-trifluoromethylquinolinium methylsulfate and 30% NaOH at 400 nm. Concentration of GSSG was determined according to the method of Griffith (1980) after derivatization with 2-vinylpyridine for 30 min at room temperature.

[4] = X-ALD patients; cited from earlier work

CN(C)C(=O)/N=N/C(=O)N(C)C [diamide]
increase in ceramide production [1]: about 7 fold
ceramide formation and DNA fragmentation / apoptosis [2]: induced internucleosomal DNA fragmentation
intracellular level of GSH / GSSG [3]: increased the intracellular level of GSSG

CCCCCCCC/C=C\CCCCCCCC(=O)OCC(COC(=O)CCCCCCC/C=C\CCCCCCCC)OC(=O)CCCCCCC/C=C\CCCCCCCC [trioleate]
reduction of VLCFA [4]: 50%
